The values that follow are results of earlier work, collected in patent US20080015265A1, “Methods of treating obesity using satiety factors” (priority 2006, published 2008).

The conditions of series [1]: rats and/or mice.
The conditions of series [2]: human subjects; peripheral or intravenous administration.

Where no end group is shown, it is not given here.

In the case of “pancreatic peptide (APLEPVYPGDNATPEQMAQYAADLRRYINMLTRPRY; ends and bridges not checked; UniProt P01298 30-65, looked up) [PP, 36-amino acid peptide of the NPY family produced in the pancreatic islets]”, in series [1], the “food intake (feeding)” value was “reduces food intake”; the weight gain entry was “reduces food intake and weight gain”. In series [2], the food intake result was “sustained decrease in appetite and food intake”; the hunger / appetite entry is recorded as “sustained decrease in appetite”.

B1: adiponectin (protein, UniProt Q15848 19-244, looked up)
Adiponectin: ETTTQGPGVLLPLPKGACTGWMAGIPGHPGHNGAPGRDGRDGTPGEKGEKGDPGLIGPKGDIGETGVPGAEGPRGFPGIQGRKGEPGEGAYVYRSAFSVGLETYVTIPNMPIRFTKIFYNQQNHYDGSTGKFHCNIPGLYYFAYHITVYMKDVKVSLFKKDKAMLFTYDQYQENNVDQASGSVLLHLEVGDQVWLQVYGEGERNGLYADNDNDSTFTGFLLYHDTN
notes: non-gut peptide satiety factor
In the case of B1, in the series on hepatocyte, the “sensitivity of the hepatocyte to insulin” value was “increase the sensitivity of the hepatocyte to insulin”.
